These results are taken from patent US8299073B2, “P38 MAP kinase inhibitors” (Respivert Ltd., priority 2008, dated 2012).

Read-outs that look alike come from different tables or passages of the source.

For series [1], the system named is Differentiated U937 cells. The series can be described thus: MTT assay (loss of cell viability). Particulars: for MTT 4 hr / MTT 24 hr: loss of cell viability, 10 ug/ml. It is filed as cell-based, human. Background: Formazan colour is commonly taken as a measure of viable cells.
Protocol: Differentiated U937 cells were pre-incubated with compound for 4 hrs in 5% FCS or 10% FCS for 24 hrs and 72 hr. The supernatant was replaced with 200 ul of new media and 10 μL of MTT stock solution (5 mg/mL) added to each well. After 1 hr incubation, the media were removed, 200 μL of DMSO added to each well and the plates were shaken lightly for 1 hr prior to reading the absorbance at 550 nm.
The percentage loss of cell viability was calculated for each well relative to vehicle (0.5% DMSO)-treatment. Consequently an apparent increase in cell viability for drug treatment relative to vehicle is tabulated as a negative percentage.
Series [2] deals with LPS-induced TNFα release in THP-1 cells. The series can be described thus: LPS-induced TNF alpha release in THP-1 cells. It is filed as cell-based. The following applies: Homo sapiens.
Protocol: THP-1, human monocytic cell line, was also used for this assay. THP-1 cells were stimulated with 1 μg/ml of LPS (from E. coli: O111:B4, Sigma) for 4 hrs, and the supernatant collected for determination of TNFα concentration.
THP-1 cells, a human monocytic cell line, were stimulated with 1 μg/ml of LPS (from E. coli; O111:B4, Sigma) for 4 hr and the supernatant collected for determination of TNFα concentration by sandwich ELISA (Duo-set, R&D systems). The inhibition of TNFα production was calculated at each concentration by comparison with vehicle control.
The target in series [3] is T1, recombinant, phosphorylated p38 MAPK gamma (MAPK12:Millipore) (Homo sapiens, UniProt P53778).
T1 construct: purchased Millipore
T1 sequence (P53778 1-367): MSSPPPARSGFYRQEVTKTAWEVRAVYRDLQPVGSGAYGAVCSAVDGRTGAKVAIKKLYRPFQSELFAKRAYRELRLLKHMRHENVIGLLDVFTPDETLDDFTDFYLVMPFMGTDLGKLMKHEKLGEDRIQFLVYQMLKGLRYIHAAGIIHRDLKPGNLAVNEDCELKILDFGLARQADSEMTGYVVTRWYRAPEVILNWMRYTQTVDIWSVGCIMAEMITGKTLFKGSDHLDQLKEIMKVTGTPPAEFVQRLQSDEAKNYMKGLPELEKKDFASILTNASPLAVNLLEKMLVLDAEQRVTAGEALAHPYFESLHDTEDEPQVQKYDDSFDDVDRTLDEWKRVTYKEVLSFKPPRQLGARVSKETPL
The series can be described thus: Enzyme inhibition assay (FRET, Z-LYTE), p38 MAPK gamma. It is filed as biochemical. Particulars: read-out: IC50 values P38γ enzyme.
Protocol: The enzyme inhibitory activity of compound was determined by fluorescence resonance energy transfer (FRET) using synthetic peptides labelled with both donor and acceptor fluorophores (Z-LYTE, Invitrogen). Briefly, recombinant, phosphorylated p38 MAPK gamma (MAPK12:Millipore) was diluted in HEPES buffer, mixed with compound at desired final concentrations and incubated for two hours at room temperature. The FRET peptide (2 μM) and ATP (100 uM) were next added to the enzyme/compound mixture and incubated for one hour. Development reagent (protease) was added for one hour prior to detection in a fluorescence microplate reader. The site-specific protease only cleaves non-phosphorylated peptide and eliminates the FRET signal. Phosphorylation levels of each reaction were calculated using the ratio of coumarin emission (donor) over fluorescein emission (acceptor) with high ratios indicating high phosphorylation and low ratios, low phosphorylation levels.

Series [4] relates to LPS-induced TNFα release in differentiated U937 cells. The series can be described thus: LPS-induced TNF alpha release in differentiated U937 cells. It is filed as cell-based.
Protocol: U937 cells, human monocytic cell line, were differentiated to macrophage-type cells by incubation with phorbol myristate acetate (PMA; 100 ng/ml) for 48 to 72 hours. Where appropriate, cells were pre-incubated with final concentrations of compound for 2 hrs. Cells were then stimulated with 0.1 μg/mL of LPS (from E. coli: O111:B4, Sigma) for 4 hrs, and the supernatant collected for determination of TNFα concentration by sandwich ELISA (Duo-set, R&D systems).
Series [5] addresses T2, p38 MAPK alpha (MAPK14: Invitrogen) (Homo sapiens, UniProt Q16539).
T2 construct: purchased Invitrogen
Put plainly: Enzyme inhibition assay (FRET, Z-LYTE), p38 MAPK alpha, via activation of MAPKAP-K2. It is filed as biochemical. Particulars: read-out: IC50 values p38α enzyme.

[6] abbreviates: THP-1, LPS-induced TNFα release, read-out: IC50 values THP-1 cells.
The mark [7] stands for this setting: Homo sapiens; read-out: R-EC50 values d-U937 cells.
[8] abbreviates: THP-1, read-out: IC50 values THP-1 cells.
Where [9] appears, read: Homo sapiens, read-out: R-EC50 values d-U937 cells.

T2 sequence (Q16539 whole entry): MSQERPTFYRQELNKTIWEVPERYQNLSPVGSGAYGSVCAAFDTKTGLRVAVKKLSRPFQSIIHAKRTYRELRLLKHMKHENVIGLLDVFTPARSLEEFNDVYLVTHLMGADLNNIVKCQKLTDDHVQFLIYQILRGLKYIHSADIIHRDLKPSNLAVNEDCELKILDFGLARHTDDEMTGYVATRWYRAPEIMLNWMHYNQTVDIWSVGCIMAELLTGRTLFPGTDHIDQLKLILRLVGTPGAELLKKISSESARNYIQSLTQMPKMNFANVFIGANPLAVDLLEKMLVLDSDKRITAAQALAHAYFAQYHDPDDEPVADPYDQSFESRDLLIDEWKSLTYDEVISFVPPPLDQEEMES

As to `COCC(=O)Nc1cc(COc2ccc(NC(=O)Nc3cc(C(C)(C)C)nn3-c3ccc(C)cc3)c3ccccc23)ccn1` [Example 1, N-(4-((4-(3-(3-tert-Butyl-1-p-tolyl-1H-pyrazol-5-yl)ureido)naphthalen-1-yloxy)methyl)pyridin-2-yl)-2-methoxyacetamide], the “Differentiated U937 cells MTT Assay” value in series [1] (4, 24 h (10 μg/ml)) was “Negative^2”. For the same compound, in series [1], the “MTT 4 hr” value is “− (− <30%)” and the “MTT 24 hr” value was “− (− <30%)”.

In general, IC50 refers to the concentration that gives 50% inhibition. By EC50 is commonly meant the concentration that produces a half-maximal response. For the compound `CNC(=O)Nc1cc(COc2ccc(NC(=O)Nc3cc(C(C)(C)C)nn3-c3ccc(C)cc3)c3ccccc23)ccn1` [Example 2, Methyl 4-((4-(3-(3-tert-butyl-1-p-tolyl-1H-pyrazol-5-yl)ureido)naphthalen-1-yloxy)methyl)pyridin-2-ylurea], in series [1], the “MTT 4 hr” value is reported as “− (− <30%)” and the “MTT 24 hr” value is given as “− (− <30%)”. In addition, the concentration for half-maximal inhibition (IC50) in series [2] (setting [6]) is below 500 nM. In addition, the IC50 in series [3] is below 500 nM. Besides, the concentration giving a half-maximal response (EC50) in series [4] (setting [7]) was below 500 nM.

Take `Cc1ccc(-n2nc(C(C)(C)C)cc2NC(=O)Nc2ccc(OCc3ccnc(NC(=O)C4CCOCC4)c3)c3ccccc23)cc1` [Example 3, N-(4-((4-(3-(3-tert-Butyl-1-p-tolyl-1H-pyrazol-5-yl)ureido)naphthalen-1-yloxy)methyl)pyridin-2-yl)tetrahydro-2H-pyran-4-carboxamide]: the “MTT 4 hr” value in series [1] was “− (− <30%)”. Also, the “MTT 24 hr” value in series [1] is listed as “+ (+ >30% at 10 ug/ml)”. Also, the figures for the IC50 in series [2] (setting [6]), in series [5] and in series [3] were below 10 nM, below 10 nM and below 500 nM, respectively. Further, the EC50 in series [4] (setting [7]) was below 10 nM.

Take `CO[C@@H](C)C(=O)Nc1cc(COc2ccc(NC(=O)Nc3cc(C(C)(C)C)nn3-c3ccc(C)cc3)c3ccccc23)ccn1` [Example 4, (S)-N-(4-((4-(3-(3-tert-Butyl-1-p-tolyl-1H-pyrazol-5-yl)ureido)naphthalen-1-yloxy)methyl)pyridin-2-yl)-2-methoxypropanamide]: the “MTT 4 hr” value in series [1] is given as “− (− <30%)”. Further, the “MTT 24 hr” value in series [1] is on record as “− (− <30%)”. Also, the IC50 is below 10 nM in series [2] (setting [6]), below 500 nM in series [5] and below 500 nM in series [3]. Moreover, the EC50 in series [4] (setting [7]) is below 10 nM.

Consider `CO[C@H](C)C(=O)Nc1cc(COc2ccc(NC(=O)Nc3cc(C(C)(C)C)nn3-c3ccc(C)cc3)c3ccccc23)ccn1` [Example 5, (R)-N-(4-((4-(3-(3-tert-Butyl-1-p-tolyl-1H-pyrazol-5-yl)ureido)naphthalen-1-yloxy)methyl)pyridin-2-yl)-2-methoxypropanamide], for which the “MTT 4 hr” value in series [1] was “− (− <30%)”. In addition, the “MTT 24 hr” value in series [1] is “+ (+ >30% at 10 ug/ml)”. Besides, the 50% inhibitory concentration (IC50) in series [2] (setting [6]) was below 10 nM; in series [5], below 10 nM; in series [3] it was below 5000 nM. Also, the EC50 in series [4] (setting [7]) was below 10 nM.

Turning to `Cc1ccc(-n2nc(C(C)(C)C)cc2NC(=O)Nc2ccc(OCc3ccnc(NC(=O)CO)c3)c3ccccc23)cc1` [Example 7, N-(4-((4-(3-(3-tert-Butyl-1-p-tolyl-1H-pyrazol-5-yl)ureido)naphthalen-1-yloxy)methyl)pyridin-2-yl)-2-hydroxyacetamide], in series [1], the “MTT 4 hr” value is on record as “− (− <30%)”. In series [1], the “MTT 24 hr” value is “+ (+ >30% at 10 ug/ml)”. Moreover, the figures for the half-inhibitory concentration (IC50) in series [2] (setting [6]), in series [5] and in series [3] were below 10 nM, below 10 nM and below 500 nM, respectively. The EC50 in series [4] (setting [7]) was below 10 nM.

In the case of `CNC(C)(C)C(=O)Nc1cc(COc2ccc(NC(=O)Nc3cc(C(C)(C)C)nn3-c3ccc(C)cc3)c3ccccc23)ccn1` [Example 8, N-(4-((4-(3-(3-tert-Butyl-1-p-tolyl-1H-pyrazol-5-yl)ureido)naphthalen-1-yloxy)methyl)pyridin-2-yl)-2-methyl-2-(methylamino)propanamide], the “MTT 4 hr” value in series [1] was “− (− <30%)”. The “MTT 24 hr” value in series [1] is “+ (+ >30% at 10 ug/ml)”. Besides, the results for the IC50 in series [2] (setting [6]), in series [5] and in series [3] were below 10 nM, below 500 nM and below 5000 nM, respectively. Also, the half-maximal effective concentration (EC50) in series [4] (setting [7]) was below 10 nM.

`COCCNC(=O)CNC(=O)Nc1cc(COc2ccc(NC(=O)Nc3cc(C(C)(C)C)nn3-c3ccc(C)cc3)c3ccccc23)ccn1` [Example 15, 2-(3-(4-((4-(3-(3-tert-Butyl-1-p-tolyl-1H-pyrazol-5-yl)ureido)naphthalen-1-yloxy)methyl)pyridin-2-yl)ureido)-N-(2-methoxyethyl)acetamide]: in series [1], the “MTT 4 hr” value was “− (− <30%)” and the “MTT 24 hr” value is “− (− <30%)”. For the same compound, the IC50 in series [2] (setting [6]) is below 10 nM. The IC50 in series [3] was below 500 nM. In addition, the EC50 in series [4] (setting [7]) is below 500 nM.

Turning to `COCCNCC(=O)Nc1cc(COc2ccc(NC(=O)Nc3cc(C(C)(C)C)nn3-c3ccc(C)cc3)c3ccccc23)ccn1` [Example 25, N-(4-((4-(3-(3-tert-Butyl-1-p-tolyl-1H-pyrazol-5-yl)ureido)naphthalen-1-yloxy)methyl)pyridin-2-yl)-2-(2-methoxyethylamino)acetamide], in series [1], the “MTT 4 hr” value is on record as “− (− <30%)” and the “MTT 24 hr” value is listed as “− (− <30%)”. The concentration for half-maximal inhibition (IC50) in series [2] (setting [6]) was below 10 nM. Further, in series [3], the 50% inhibitory concentration (IC50) is below 500 nM. The EC50 in series [4] (setting [7]) is below 10 nM.

With `CNC(=O)Nc1cnccc1COc1ccc(NC(=O)Nc2cc(C(C)(C)C)nn2-c2ccc(C)cc2)c2ccccc12` [Example 34, 1-(4-((3-Methylureidopyridin-4-yl)methoxy)naphthalen-1-yl)-3-(3-tert-butyl-1-p-tolyl-1H-pyrazol-5-yl)urea], in series [1], the “MTT 4 hr” value was “+ (+ >30% at 10 ug/ml)” and the “MTT 24 hr” value is given as “− (− <30%)”. Further, the concentration for half-maximal inhibition (IC50) in series [2] (setting [6]) was below 500 nM. In series [3], the IC50 is below 5000 nM. The concentration giving a half-maximal response (EC50) in series [4] (setting [7]) is below 500 nM.

Take `COCC(=O)Nc1cnccc1COc1ccc(NC(=O)Nc2cc(C(C)(C)C)nn2-c2ccc(C)cc2)c2ccccc12` [Example 35, N-(4-((4-(3-(3-tert-Butyl-1-p-tolyl-1H-pyrazol-5-yl)ureido)naphthalen-1-yloxy)methyl)pyridin-3-yl)-2-methoxyacetamide]: in series [1], the “MTT 4 hr” value was “− (− <30%)” and the “MTT 24 hr” value is “− (− <30%)”. The half-inhibitory concentration (IC50) in series [3] is above 5000 nM.

On to `COCCOCC(=O)Nc1cnccc1COc1ccc(NC(=O)Nc2cc(C(C)(C)C)nn2-c2ccc(C)cc2)c2ccccc12` [Example 36, N-(4-((4-(3-(3-tert-Butyl-1-p-tolyl-1H-pyrazol-5-yl)ureido)naphthalen-1-yloxy)methyl)pyridin-3-yl)-2-(2-methoxyethoxy)acetamide], for which, in series [1], the “MTT 4 hr” value is “− (− <30%)” and the “MTT 24 hr” value was “− (− <30%)”. In series [2] (setting [8]), the half-maximal inhibitory concentration (IC50) is below 500 nM. For the same compound, the concentration for half-maximal inhibition (IC50) in series [3] is above 5000 nM. Moreover, the concentration giving a half-maximal response (EC50) in series [4] (setting [9]) is below 10 nM.

Regarding `Cc1ccc(-n2nc(C(C)(C)C)cc2NC(=O)Nc2ccc(Oc3ccnc(NC(=O)CS(C)(=O)=O)c3)c3ccccc23)cc1` [Example 51, N-(4-(4-(3-(3-tert-Butyl-1-p-tolyl-1H-pyrazol-5-yl)ureido)naphthalen-1-yloxy)pyridin-2-yl)-2-(methylsulfonyl)acetamide], in series [1], the “MTT 4 hr” value was “− (− <30%)” and the “MTT 24 hr” value is listed as “+ (+ >30% at 10 ug/ml)”. In addition, in series [2] (setting [8]), the concentration for half-maximal inhibition (IC50) was below 10 nM. The EC50 in series [4] (setting [9]) was below 10 nM.
